Experimental data from patent publication US11230542B2, “Inhibitors of integrated stress response pathway” (Praxis Biotech LLC, priority 2017, dated 2022).

Experiments:
[1] = system: C57Bl/6J mice with TBI; assay: Learning memory, long-term memory and social behavior after traumatic brain injury (TBI); type: in vivo, mouse
Text: Wild type three-month-old male C57Bl/6J mice were randomly assigned to TBI or sham surgeries. Animals were anesthetized and maintained at 2% isoflurane and secured to a stereotaxic frame with nontraumatic ear bars. The hair on their scalp was removed, and eye ointment and betadine were applied to their eyes and scalp, respectively. A midline incision was made to expose the skull. A unilateral TBI was induced in the right parietal lobe using the controlled cortical impact model (Nat Neurosci. 2014 August; 17(8): 1073-82). Mice received a 3.5-mm diameter craniectomy, a removal of part of the skull, using an electric microdrill. The coordinates of the craniectomy were: anteroposterior, −2.00 mm and mediolateral, +2.00 mm with respect to bregma. After the craniectomy, the contusion was induced using a 3-mm convex tip attached to an electromagnetic impactor (Leica). The contusion depth was set to 0.95 mm from dura with a velocity of 4.0 m/s sustained for 300 ms. These injury parameters were chosen to target, but not penetrate, the hippocampus. Sham animals received craniectomy surgeries but without the focal injury. After focal TBI surgery, the scalp was sutured and the animal was allowed to recover in an incubation chamber set to 37° C. Animals were returned to their home cage after showing normal walking and grooming behavior.
After 28 days post injury (dpi), animals were tested on the RAWM assay (see above). Animals ran 12 trials during learning test and 4 trials during memory test. Last three trials from learning test and all four trials from memory test were averaged to determine learning memory (learning test) and long-term memory (memory test). […]
To quantitate social tendencies of the treated mice, the time spent with a novel conspecific mouse was measured in a Crawley's three-chamber box (J Vis Exp. 2011; (48): 2473). […] The time spent with the never-before-met animal was recorded. Direct contact between the treated mouse and the housing cage or stretching of the body of the subject mouse in an area 3-5 cm around the housing cage is counted as an active contact.

[2] = system: ATF4; assay: ATF4 expression inhibition assay (thapsigargin-stressed HEK293T cells, western blot); type: cell-based; settings: Homo sapiens, HEK-293T
Procedure, shortened: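 HEK293T cells treated with thapsigargin (Tg) plus test compound (100 nM or 1 μM) for 3 hours, then lysed; ATF4 measured by western blot with ECL and densitometry. % inhibition normalized to Tg alone (0%) and untreated cells (100%); IC50 also calculated.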

[3] = system: CT26 colon carcinoma cell line; assay: Tumor growth and density model; type: in vivo, mouse; settings: 10 mg/kg daily oral gavage for 13 days from day 6 post tumor-cell injection
Experimental: Wild type six-weeks-old male Balb/c mice obtained from the vivarium Fundacion Ciencia & Vida Chile (Santiago, Chile) were used. Mice were housed in independent plastic cages in a room maintained at 25° C. with a 12-h:12-h light:dark cycle.
1×10^6 CT26 colon carcinoma cell line (ATCC #CRL-2638, ATCC Manassas, Va.) were injected subcutaneously in the right lower flank of each animal as described (Nat Commun. 2012 Jun. 12; 3:896). Non-injected animals were used as controls. At day 6 post tumor-cell injection, mean tumor volume was about 100 mm^3, animals were weighed and randomized into two groups and treated with 10 mg/kg of compound 3 formulated in 50% Polyethylene glycol (PEG-400) in distilled water, or with vehicle (50% PEG-400 in distilled water) by daily oral gavage for 13 days.
At the end of the study, tumors were measured with digital caliper and tumors volumes, expressed in mm^3, were calculated with the following formula: Tumor volume (mm^3)=(a×b^2)/2 where “a” is the largest perpendicular diameter and “b” is the smallest diameter. Animals were then sacrificed and tumors were extracted and weighed. The volumes and weight of the tumors of each animal are shown in FIGS. 12A and 12B respectively. Bars represent mean±SEM. Statistical analyses were performed using GraphPad Prism software and significant difference was assessed by t test (*<0.05).

IC50 ([2]; 3 h with 100 nM Tg, test compound 1 nM to 1 μM): 145 nM
Structure (SMILES): O=C(COc1ccc(Cl)cc1)N[C@H]1CC[C@H](NC[C@@H](O)COc2ccc(Cl)cc2)CC1 (single isomer, unassigned) [Compound 3, (+)-2-(4-chlorophenoxy)-N-(4-((3-(4-chlorophenoxy)-2-hydroxypropyl)amino)cyclohexyl)acetamide]
learning memory, number of errors in RAWM ([1]; 5 mg/kg intraperitoneally, 28-29 dpi, versus vehicle): made significantly less errors over the course of training
long-term memory, RAWM ([1]; 35 dpi, 7 days after training, versus vehicle): a similar trend was seen
social behavior, time spent with the novel mouse ([1]; 42 dpi, Crawley's three-chamber box): spent more time with the novel mouse at levels similar to those animals from sham group
inhibition at 0.1 µM ([2]; 3 h with 100 nM thapsigargin (Tg) and 100 nM test compound, Tg alone 0%, untreated 100%): 35%
inhibition at 1 µM ([2]; 3 h with 100 nM thapsigargin (Tg) and 1 μM test compound, Tg alone 0%, untreated 100%): 77%
tumor density (weight/volume ratio) [3]: significantly reduce the tumor density
tumor volume [3]: does not reduce tumor volume
